Laboratory results: publication PMC10674894 (Viruses, 2023)

How the values were obtained:
[1] = system: Vero cells; experiment: Cytotoxicity MTT assay in Vero cells (MNTD, CC50); type: cell-based, African green monkey
[2] = system: CHIKV DRDE-07; experiment: In vitro screening against CHIKV (CPE inhibition and MTT cell viability); type: cell-based, chikungunya virus; conditions: for % Cell viability / CPE: Table S1, CHIKV-infected Vero cells; for % Cell viability / Cell Viability: 72 hpi; for % Cell viability: MTT assay; for CPE: arbitrary score of cytopathic effect at >48 hpi; for Cell Viability: CHIKV-infected Vero cells treated at MNTD, MTT, cell control + DMSO = 100%
[3] = maximum nontoxic dose in Vero cells, MTT

CCOc1ccc(/C=N/NC(=O)c2ccncc2)cc1OC [DCR32, (E)-N'-(4-ethoxy-3-methoxybenzylidene)isonicotinohydrazide]
MNTD ([1]; Table S1, Vero cells): 31.25 µM
% Cell viability [2]: 6.03%
CPE [2]: ++++ (>60% (++++))

Nc1nc(N)c2cc(F)c(F)cc2n1 [DCR 138, 6,7-difluoro-quinazoline-2,4-diamine]
MNTD ([1]; Table S1, Vero cells): 250 µM
MNTD [1, 3]: 250 µM
Cell Viability [2]: 51%
CPE [2]: ++ (50-30% (++))

Nc1nc(N)c2ccc(F)cc2n1 [DCR 136, 7-fluoro-quinazoline-2,4-diamine]
MNTD ([1]; Table S1, Vero cells): 250 µM
MNTD [1, 3]: 250 µM
Cell Viability [2]: 54%
CPE [2]: ++ (50-30% (++))

CCOc1ccc(/C=N/NC(=O)c2cccnc2)cc1OC [DCR17, (E)-N'-(4-ethoxy-3-methoxybenzylidene)nicotinohydrazide]
MNTD ([1]; Table S1, Vero cells): 31.25 µM
% Cell viability [2]: 0.1%
CPE [2]: ++++ (>60% (++++))

O=C(N/N=C/c1cccc([N+](=O)[O-])c1)c1ccncc1 [DCR34, (E)-N'-(3-nitrobenzylidene)isonicotinohydrazide]
MNTD ([1]; Table S1, Vero cells): 62.5 µM
% Cell viability [2]: 6.42%
CPE [2]: ++++ (>60% (++++))

O=C(N/N=C/c1ccc(Cl)cc1Cl)c1ccncc1 [DCR41, (E)-N'-(2,4-dichlorobenzylidene)isonicotinohydrazide]
MNTD ([1]; Table S1, Vero cells): 31.25 µM
% Cell viability [2]: 35.79%
CPE [2]: ++++ (>60% (++++))

CC1CN(c2ccc(C(=N)NO)c(Cl)c2)CC(C)N1 (stereo not drawn) [DCR149, 2-Chloro-4-(3,5-dimethyl-piperazin-1-yl)-N-hydroxy-benzamidine]
MNTD ([1]; Table S1, Vero cells): 125 µM
% Cell viability [2]: -21.8%
CPE [2]: ++++ (>60% (++++))

Clc1ncccc1Oc1cc2c(c3ncccc13)Oc1ncccc1O2 [DCR 3, 7-[(2-chloropridin-3-yl)oxy]-5,12-dioxa-1,11-diazatetraphene]
MNTD ([1]; Table S1, Vero cells): 50 µM
MNTD [1, 3]: 50 µM
Cell Viability [2]: 69.9%
CPE [2]: ++ (50-30% (++))

Cc1ccc(C2NC(=O)Oc3ccc4ccccc4c32)cc1 (stereo not drawn) [DCR66, 1-(4-methylphenyl)-1H,2H,3H-naphtho[1,2-e][1,3]oxazin-3-one]
MNTD ([1]; Table S1, Vero cells): 54 µM
% Cell viability [2]: 12.24%
CPE [2]: ++++ (>60% (++++))

CC(=O)NNC(=O)c1ccncc1 [DCR13, N'-acetylisonicotinohydrazide]
MNTD ([1]; Table S1, Vero cells): 62.5 µM
% Cell viability [2]: 15.07%
CPE [2]: ++++ (>60% (++++))

CC(=O)Cc1noc(C2CCCCC2)n1 [DCR80, 1-(5-cyclohexyl-1,2,4-oxadiazol-3-yl)propan-2-one]
MNTD ([1]; Table S1, Vero cells): 125 µM
% Cell viability [2]: 29.64%
CPE [2]: ++++ (>60% (++++))

(E)-N'-(5-bromo-2-methoxybenzylidene)nicotinohydrazide [DCR24]
MNTD ([1]; Table S1, Vero cells): 15.6 µM
% Cell viability [2]: 25.23%
CPE [2]: ++++ (>60% (++++))

CC(=O)Cc1noc(-c2ccccn2)n1 [DCR84, 1-[5-(pyridin-2-yl)-1,2,4-oxadiazol-3-yl]propan-2-one]
MNTD ([1]; Table S1, Vero cells): 125 µM
% Cell viability [2]: 2.86%
CPE [2]: ++++ (>60% (++++))

C#CCOC(=O)C1=C(C)NC(=O)NC1c1ccc(OCC)cc1 (stereo not drawn) [DCR94, prop-2-yn-1-yl 4-(4-ethoxyphenyl)-6-methyl-2-oxo-1,2,3,4-tetrahydropyrimidine-5-carboxylate]
MNTD ([1]; Table S1, Vero cells): 198.83 µM
% Cell viability [2]: 19.5%
CPE [2]: ++++ (>60% (++++))

COc1ccc(C2c3c(ccc4ccccc34)Oc3ccc4ccccc4c32)cc1 [DCR113, 2‐(4‐methoxyphenyl)‐13‐oxapentacyclo[12.8.0.0³,¹².0⁴,⁹.0¹⁷,²²]docosa‐1(14),3,5,7,9,11,15,17(22),18,20‐decaene]
MNTD ([1]; Table S1, Vero cells): 31.25 µM
% Cell viability [2]: 5.04%
CPE [2]: ++++ (>60% (++++))

CC1=C(C(=O)OCCN(C)C)C(c2ccc(N(C)C)cc2)NC(=S)N1 (stereo not drawn) [DCR111, 2‐(dimethylamino)ethyl 4‐[4‐(dimethylamino)phenyl]‐6‐methyl‐2‐sulfanylidene‐1,2,3,4‐tetrahydropyrimidine‐5‐carboxylate]
MNTD ([1]; Table S1, Vero cells): 62.5 µM
% Cell viability [2]: 10.08%
CPE [2]: ++++ (>60% (++++))

c1cncc(C2c3c(ccc4ccccc34)Oc3ccc4ccccc4c32)c1 [DCR121, 3‐{13‐oxapentacyclo[12.8.0.0³,¹².0⁴,⁹.0¹⁷,²²]docosa‐1(14),3,5,7,9,11,15,17(22),18,20‐decaen‐2‐yl}pyridine]
MNTD ([1]; Table S1, Vero cells): 31.25 µM
% Cell viability [2]: 8.03%
CPE [2]: ++++ (>60% (++++))

CC1=C(C(=O)OCCN(C)C)C(c2ccc(O)cc2)NC(=O)N1 (stereo not drawn) [DCR110, 2-(dimethylamino)ethyl 4-(4-hydroxyphenyl)-6-methyl-2-oxo-1,2,3,4-tetrahydropyrimidine-5-carboxylate]
MNTD ([1]; Table S1, Vero cells): 62.5 µM
% Cell viability [2]: 12.01%
CPE [2]: ++++ (>60% (++++))

N#Cc1ccccc1N1CCCCC1 [DCR140, 2-Piperidin-1-yl-benzonitrile]
MNTD ([1]; Table S1, Vero cells): 250 µM
% Cell viability [2]: 14.97%
CPE [2]: ++++ (>60% (++++))

CC(C)C1c2c(ccc3ccccc23)Oc2ccc3ccccc3c21 [DCR120, 2‐(propan‐2‐yl)‐13‐oxapentacyclo[12.8.0.0³,¹².0⁴,⁹.0¹⁷,²²]docosa‐1(14),3,5,7,9,11,15,17(22),18,20‐decaene]
MNTD ([1]; Table S1, Vero cells): 31.25 µM
% Cell viability [2]: 19.24%
CPE [2]: ++++ (>60% (++++))

CC1(C)CC(=O)C2=C(C1)OC1=C(C(=O)CC(C)(C)C1)C2c1ccccc1Cl [DCR124, 9‐(2‐chlorophenyl)‐3,3,6,6‐tetramethyl‐2,3,4,5,6,7,8,9‐octahydro‐1H‐xanthene‐1,8‐dione]
MNTD ([1]; Table S1, Vero cells): 125 µM
% Cell viability [2]: 11.05%
CPE [2]: ++++ (>60% (++++))

CC1(C)CC(=O)C2=C(C1)OC1=C(C(=O)CC(C)(C)C1)C2c1ccccn1 [DCR132, 3,3,6,6‐tetramethyl‐9‐(pyridin‐2‐yl)‐2,3,4,5,6,7,8,9‐octahydro‐1H‐xanthene‐1,8‐dione]
MNTD ([1]; Table S1, Vero cells): 125 µM
% Cell viability [2]: 9.06%
CPE [2]: ++++ (>60% (++++))

COc1ccc(COC(=O)C2=C(C)NC(=O)NC2c2ccc(OC)cc2)cc1 (stereo not drawn) [DCR101, 4-methoxybenzyl 4-(4-methoxyphenyl)-6-methyl-2-oxo-1,2,3,4-tetrahydropyrimidine-5-carboxylate]
MNTD ([1]; Table S1, Vero cells): 250 µM
% Cell viability [2]: 7.02%
CPE [2]: ++++ (>60% (++++))

O=C1NC(c2cccc(Cl)c2)c2c(ccc3ccccc23)O1 (stereo not drawn) [DCR67, 1-(3-chlorophenyl)-1H,2H,3H-naphtho[1,2-e][1,3]oxazin-3-one]
MNTD ([1]; Table S1, Vero cells): 50.44 µM
% Cell viability [2]: 10.94%
CPE [2]: ++++ (>60% (++++))

(E)-N'-(5-bromo-2-methoxybenzylidene)isonicotinohydrazide [DCR39]
MNTD ([1]; Table S1, Vero cells): 31.25 µM
% Cell viability [2]: 3.81%
CPE [2]: ++++ (>60% (++++))

C=CCOC(=O)C1=C(C)NC(=O)NC1c1ccc(OC)cc1 (stereo not drawn) [DCR98, prop-2-en-1-yl 4-(4-methoxyphenyl)-6-methyl-2-oxo-1,2,3,4-tetrahydropyrimidine-5-carboxylate]
MNTD ([1]; Table S1, Vero cells): 413.46 µM
% Cell viability [2]: 12.66%
CPE [2]: ++++ (>60% (++++))

O=[N+]([O-])c1ccc(N2CCCCC2)c([N+](=O)[O-])c1 [DCR144, 1-(2,4-Dinitro-phenyl)-piperidine]
MNTD ([1]; Table S1, Vero cells): 125 µM
% Cell viability [2]: 25.21%
CPE [2]: ++++ (>60% (++++))

N#Cc1ccc(N2CCN(CCO)CC2)cc1N1CCN(CCO)CC1 [DCR150, 2,4-Bis-[4-(2-hydroxy-ethyl)-piperazin-1-yl]-benzonitrile]
MNTD ([1]; Table S1, Vero cells): 62.5 µM
% Cell viability [2]: 18.09%
CPE [2]: ++++ (>60% (++++))

CC1(C)CC(=O)C2=C(C1)OC1=C(C(=O)CC(C)(C)C1)C2c1cccc([N+](=O)[O-])c1 [DCR129, 3,3,6,6‐tetramethyl‐9‐(3‐nitrophenyl)‐2,3,4,5,6,7,8,9‐octahydro‐1H‐xanthene‐1,8‐dione]
MNTD ([1]; Table S1, Vero cells): 31.25 µM
% Cell viability [2]: 16.85%
CPE [2]: ++++ (>60% (++++))

O=C(N/N=C/c1ccccc1Br)c1cccnc1 [DCR23, (E)-N'-(2-bromobenzylidene)nicotinohydrazide]
MNTD ([1]; Table S1, Vero cells): 15.6 µM
% Cell viability [2]: 28.01%
CPE [2]: ++++ (>60% (++++))

C/C(=N\NC(=O)c1ccncc1)c1ccccc1O [DCR49, (E)-N'-(1-(2-hydroxyphenyl)ethylidene)isonicotinohydrazide]
MNTD ([1]; Table S1, Vero cells): 62.5 µM
% Cell viability [2]: 48.9%
CPE [2]: +++ (60-50% (+++))

Cc1ccc(/C=N/NC(=O)c2ccncc2)cc1 [DCR31, (E)-N'-(4-methylbenzylidene)isonicotinohydrazide]
MNTD ([1]; Table S1, Vero cells): 62.5 µM
% Cell viability [2]: 1.03%
CPE [2]: ++++ (>60% (++++))

COc1cc(Br)cc(C2C3=C(CC(C)(C)CC3=O)OC3=C2C(=O)CC(C)(C)C3)c1 [DCR131, 9‐(3‐bromo‐5‐methoxyphenyl)‐3,3,6,6‐tetramethyl‐2,3,4,5,6,7,8,9‐octahydro‐1H‐xanthene‐1,8‐dione]
MNTD ([1]; Table S1, Vero cells): 125 µM
% Cell viability [2]: 8.01%
CPE [2]: ++++ (>60% (++++))

O=C(O)c1ccc(/C=N/NC(=O)c2ccncc2)cc1 [DCR43, (E)-4-((2-isonicotinoylhydrazono)methyl)benzoic acid]
MNTD ([1]; Table S1, Vero cells): 31.25 µM
% Cell viability [2]: 16.82%
CPE [2]: ++++ (>60% (++++))

CC1(C)CC(=O)C2=C(C1)OC1=C(C(=O)CC(C)(C)C1)C2c1ccc(C2C3=C(CC(C)(C)CC3=O)OC3=C2C(=O)CC(C)(C)C3)cc1 [DCR133, 3,3,6,6‐tetramethyl‐9‐[4‐(3,3,6,6‐tetramethyl‐1,8‐dioxo‐dodecahydro‐1H‐xanthen‐9‐yl)phenyl]‐2,3,4,5,6,7,8,9‐octahydro‐1H‐xanthene‐1,8‐dione]
MNTD ([1]; Table S1, Vero cells): 125 µM
% Cell viability [2]: 11.14%
CPE [2]: ++++ (>60% (++++))
